Series [1] has as its target T1, C-X-C chemokine receptor type 2 (Homo sapiens, UniProt P25025).
T1 sequence (P25025 whole entry): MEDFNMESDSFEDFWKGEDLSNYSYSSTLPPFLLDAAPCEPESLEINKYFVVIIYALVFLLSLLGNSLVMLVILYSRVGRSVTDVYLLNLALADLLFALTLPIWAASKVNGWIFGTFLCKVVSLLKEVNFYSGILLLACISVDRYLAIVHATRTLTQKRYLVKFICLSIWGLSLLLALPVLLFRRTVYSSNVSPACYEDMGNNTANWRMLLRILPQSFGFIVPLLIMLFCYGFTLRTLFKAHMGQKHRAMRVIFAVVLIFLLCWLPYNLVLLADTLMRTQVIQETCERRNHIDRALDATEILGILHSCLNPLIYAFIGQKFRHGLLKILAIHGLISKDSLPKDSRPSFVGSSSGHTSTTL
Nature of the series: Antagonist activity at CXCR2 (unknown origin).

In series [2] the target is T1, C-X-C chemokine receptor type 2. Kind of series: Antagonist activity at CXCR2 (unknown origin) expressed in human U2OS cells cp-expressing betaarrestin-2/TEV protease and beta lactamase assessed as effect on beta-arrestin2 recruitment preincubated for 30 mins followed by IL-8 addition and further incubated for 5 hrs subsequently adding CCF4-AM staining and measured after 2 hrs by Tango assay. Type of series: cell-based.

For series [3] the target is unchanged. Kind of series: Antagonist activity at GFP-tagged CXCR2 (unknown origin) expressed in 293T cells assessed as suppression of IL-8-induced inhibition of forskolin-stimulated cAMP accumulation preincubated for 10 mins followed by IL-8 addition and measured after 10 mins by cAMP assay. Type of series: functional, cell-based. (In general: cAMP levels reflect the balance of adenylyl cyclase and phosphodiesterase activity.)

The species named for series [4] is Homo sapiens. Nature of the series: Selectivity ratio of IC50 for displacement of [125I]IL-8 from CXCR1 (unknown origin) to IC50 for displacement of [125I]IL-8 from CXCR2 (unknown origin). For orientation: Displacement assays read how much labelled ligand stays bound in the presence of the test substance.
In series [5] the test system is A375-SM. Kind of series: Antitumor activity against human A375SM cells xenografted in athymic nude mice assessed as reduction in tumor volume at 100 mg/kg, po for 21 days. Type of series: functional. (In xenograft studies the graft and the host belong to different species.)
In series [6] the test system is A375-SM. Kind of series: Antitumor activity against human A375SM cells xenografted in athymic nude mice assessed as reduction in blood vessels formation at 100 mg/kg, po for 21 days and measured on day 50 by immunohistochemistry relative to control. The arrangement: scale not given: the % may be the effect or the level left. Type of series: functional.
For series [7], the target named is T2, C-X-C chemokine receptor type 1 (Homo sapiens, UniProt P25024).
T2 sequence (P25024 whole entry): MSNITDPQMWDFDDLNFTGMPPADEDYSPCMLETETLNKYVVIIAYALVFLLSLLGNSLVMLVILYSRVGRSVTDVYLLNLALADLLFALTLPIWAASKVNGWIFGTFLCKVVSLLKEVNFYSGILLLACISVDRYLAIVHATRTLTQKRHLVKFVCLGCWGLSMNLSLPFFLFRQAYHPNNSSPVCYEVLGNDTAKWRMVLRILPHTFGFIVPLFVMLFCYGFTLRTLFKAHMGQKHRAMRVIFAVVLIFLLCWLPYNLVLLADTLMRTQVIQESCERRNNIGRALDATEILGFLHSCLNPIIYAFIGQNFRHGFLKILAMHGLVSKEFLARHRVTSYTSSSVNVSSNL
Nature of the series: Displacement of [125I]IL-8 from CXCR1 in human neutrophils incubated for 3 hrs by gamma counting method.

Series [8] addresses T1, C-X-C chemokine receptor type 2. Nature of the series: Displacement of [125I]IL-8 from CXCR2 in human neutrophils incubated for 3 hrs by gamma counting method.
The species named for series [9] is Homo sapiens. Nature of the series: Selectivity ratio of IC50 for antagonist activity at CXCR1 (unknown origin) stably expressed in HEK293 cells co-expressing Galpha16 to antagonist activity at CXCR2 (unknown origin) stably expressed in HEK293 cells co-expressing Galpha16. The format is cell-based.
Series [10] addresses T1, C-X-C chemokine receptor type 2. Kind of series: Antagonist activity at CXCR2 (unknown origin) stably expressed in HEK293 cells co-expressing Galpha16 assessed as reduction in IL-8-induced intracellular calcium change incubated for 10 mins by Fluo-4AM dye based fluorescence assay. The format is functional, cell-based.
Series [11] deals with T2, C-X-C chemokine receptor type 1. Nature of the series: Antagonist activity at CXCR1 (unknown origin) stably expressed in HEK293 cells co-expressing Galpha16 assessed as reduction in IL-8-induced intracellular calcium change incubated for 10 mins by Fluo-4AM dye based fluorescence assay. The format is functional, cell-based.
Series [12] concerns the target T3, C-X-C chemokine receptor type 2 (Homo sapiens) (UniProt P25025).
T3 sequence (whole entry): T1 sequence (P25025 whole entry)
Nature of the series: Displacement of [125I]-IL-8 from human CXCR2 expressed in CHO cells membrane at 20 uM relative to control. The format is cell membranes.

Series [13] can be described thus: Oral bioavailability in rat. The format is ADME, organism-based. The settings on record: in vivo.
Series [14] concerns the target T1, C-X-C chemokine receptor type 2. Kind of series: Antagonist activity at CXCR2 in human neutrophils assessed as reduction in GROalpha stimulated intracellular calcium mobilisation by FLIPR assay. The format is functional, cell-based.
For series [15] the target is unchanged. Nature of the series: Antagonist activity at CXCR2 in human U2OS cells assessed as effect on beta-arrestin2 recruitment by CCF4-AM staining based Tango assay. Type of series: cell-based.
For series [16] the target is unchanged. Nature of the series: Displacement of [125I]IL-8 from human CXCR2 expressed in CHO cells. The format is cell-based.
The test system of the next series is SK-OV-3. Nature of the series: Antitumor activity against human SKOV3 cells xenografted in athymic Nu/Nu mouse assessed as reduction in tumor volume at 10 mg/kg/day, ip co-treated with sorafenib 30 mg/kg, po relative to sorafenib alone. The format is functional. The arrangement: scale not given: the % may be the effect or the level left.

Turning to `Cc1ccc([C@H](Nc2c(Nc3cccc(S(=O)(=O)N4CCN(C)CC4)c3O)c(=O)c2=O)[C@H]2CCCS2)o1`, in series [1], the half-inhibitory concentration (IC50) (in general, the concentration at which inhibition is half-maximal) turned out to be 17 nM.
For `CC(=O)c1c(C)oc2c1cc(NS(=O)(=O)c1ccc(C(C)(C)C)cc1)c1ccccc12`, in [2], the IC50 amounted to 7600 nM.
For `CCSc1nnc2n(-c3ccccc3)c(=O)c3c4c(sc3n12)CCC[C@H]4C`, in [3], the half-maximal inhibitory concentration (IC50) is 7800 nM.
Compound `CCN(CC)Nc1c(Nc2cccc(C(=O)N(C)C)c2O)c(=O)c1=O` gave an IC50 in series [1] of 0.12 nM.
With `O=C(Nc1ccccc1)Nc1ccc([N+](=O)[O-])cc1O`, the Ratio IC50 in the series filed under Homo sapiens [4] stood at 433.
Take `C[C@@H](NC1=C(C(=O)Nc2ccc(Cl)c(C(F)(F)F)c2)C(=O)CC(C)(C)C1)c1ccccc1`: in series [2], the IC50 worked out at 2500 nM.
For `CC[C@@H](Nc1c(Nc2cccc(C(=O)N(C)C)c2O)c(=O)c1=O)c1ccc(C)o1` [NAVARIXIN ANHYDROUS], the “fold change (FC)” value in the series with A375-SM [5] came to 4.5. In addition, the Activity in the series with A375-SM [6] came to 45%.
Take `N#Cc1ccc(NC(=O)Nc2ccccc2Br)c(O)c1Br`: the Ratio IC50 in the series filed under Homo sapiens [4] turned out to be 57.
In the case of `CCN(CC)CCCCNc1nc2cc(Cl)c(Cl)cc2nc1-c1cc2ccccc2o1`, the values for the half-maximal inhibitory concentration (IC50) in series [7] and in series [8] were 230 nM and 30 nM, respectively.
As to `O=C(c1cccc(Nc2c(NC3C[C@@H]4CC[C@H]3C4)c(=O)c2=O)c1O)N1CCCC1` (stereo not given in full), the Ratio IC50 in the series listed under Homo sapiens [9] was 60. For the same compound, the half-inhibitory concentration (IC50) came to 48 nM in [10] and 2900 nM in [11].
On to `CS(=O)(=O)c1ccc(C(=O)Nc2ccc(F)cc2)c[n+]1[O-]`, for which the inhibition (commonly the drop in the measured response relative to a control, in per cent) in series [12] is 93%.
Regarding `Sc1nc(-c2ccccc2Cl)nn1Cc1cccc(Cl)c1`, the bioavailability (commonly the share of a dose that reaches the circulation, judged against a reference dose that is usually intravenous) in series [13] amounted to 61%. The concentration for half-maximal inhibition (IC50) in [14] was determined as 48 nM.
`CC1(C)CC(=O)C(C(=S)Nc2ccccc2)=C(NCc2ccccc2)C1`: the IC50 in [15] stood at 6300 nM.
In series [16], `CC[C@@H](Nc1c(Nc2ccnc(C(=O)N(C)C)c2O)c(=O)c1=O)c1ccc(C)o1` returned a half-maximal inhibitory concentration (IC50) of 2 nM.
As for `O=C(Nc1ccc([N+](=O)[O-])cc1O)Nc1ccccc1Br`, the Activity in the series with SK-OV-3 worked out at 42%.
